According to patent US20250360215A1, “PHARMACEUTICAL COMBINATIONS AND METHODS FOR PREVENTING OR TREATING NEURODEGENERATIVE DISEASES” (National Health Research Institutes, priority 2022, published 2025):

What was measured:
[1] = test system: dementia in human population; experiment: Population-based retrospective matched cohort analysis of dementia risk (Taiwan NHIRD database); format: in vivo
Description: To assess the potential for applying the combined drugs identified in Example 5 for therapeutic application in patients with dementia, a long-term follow-up retrospective analysis of human efficacy predictions was conducted by using National Health Research Institutes Database (NHRID) of Taiwan. Specifically, a […] matched cohort study was conducted to assess the effectiveness of the combined use of thyroid hormones and thiazolidinediones (TZDs) in reducing the risk of dementia, based on a dataset tracked 10,535 subjects with these two drugs for 10 years.

[2] = test system: 3T3-L1 cells; experiment: Lipid droplet accumulation in 3T3-L1 adipocytes (3D imaging, HCS LipidTOX Red neutral lipid stain); format: cell-based, mouse; settings: 1 μM peptide, 24 hours
Description: (§1) FIGS. 3A to 3E show the increased lipid deposition induced by Aβ42.
Scale bar: 20 μm. […] FIGS. 6H and 6I show the HDL/T-Chol (FIG. 6H) and glucose (FIG. 6I) levels in plasma of APP/PS1 mice with or without thyroxine and pioglitazone. ** p<0.01. […] Tubulin, GAPDH (glyceraldehyde-3-phosphate dehydrogenase), and ponceau S: internal controls, respectively.
The 3T3-L1 pre-adipocytes ([…], ATCC CL-173) were cultured in Dulbecco's modified Eagle medium (DMEM) (Invitrogen, USA). Cells were grown at 37° C. in a 5% CO2 humid atmosphere. The differentiation of 3T3-L1 cells into adipocyte-like cells was performed as follows. A confluence of 70% of 3T3-L1 cells was induced with MDI induction medium (containing 500 μM 3-isobutyl-1-methylxanthine (IBMX), 1 μg/mL insulin, and 1 μM dexamethasone) for 3 days, followed by changing the medium to differentiation medium (10% fetal bovine serum (FBS) in DMEM). The differentiation medium was refreshed every two days. Full differentiation was achieved by day 8.
To exclude the possibility that the visceral adiposity was a secondary event caused by factors released from other tissues/organs, 3T3-L1 adipocytes were incubated with Aβ40 or Aβ42 to determine whether and which Aβ peptides to be potent in causing lipid accumulation in adipocytes.

[3] = test system: wild-type mice; experiment: Aβ42 intraperitoneal injection into wild-type mice (lipid deposition); format: in vivo, mouse; settings: WT mice, Aβ42 30 μg intraperitoneally three times at an interval of 3 days; 7 days after last injection
Description: as §1
To assess whether the Aβ peptides were involved in lipid deposition in adipose tissues, Aβ42 (30 μg) was injected intraperitoneally into WT mice three times at an interval of 3 days.

[4] = test system: Aβ42-treated 3T3-L1 cells; experiment: UCP1 and PPARγ2 levels in MDI-induced, Aβ42-treated 3T3-L1 cells (screening of combination drugs); settings: MDI-induced differentiated 3T3-L1 adipocytes treated with Aβ42 (FIG. 5)
[5] = test system: 3T3-L1 cells; experiment: ApoE gene expression and LXR signaling protein levels in 3T3-L1 cells treated with Aβ peptides; format: cell-based, mouse
Description: FIGS. 4E and 4H show the result of Western blot of LXR signaling proteins in gWAT (FIG. 4E) or BAT (FIG. 4H) of wild-type (WT) mice and APP/PS1 (AD) mice (n=2). […] ABCA1: ATP binding cassette subfamily A member 1. PPAγ: peroxisome proliferator-activated receptor gamma. Actin, GAPDH (glyceraldehyde-3-phosphate dehydrogenase) and tubulin: internal controls, respectively.
The 3T3-L1 pre-adipocytes ([…], ATCC CL-173) were cultured in Dulbecco's modified Eagle medium (DMEM) (Invitrogen, USA). Cells were grown at 37° C. in a 5% CO2 humid atmosphere. The differentiation of 3T3-L1 cells into adipocyte-like cells was performed as follows. […]
Total RNAs from brain tissues or culture cells were extracted using the illustra RNAspin Mini RNA Isolation Kit (GE Healthcare Life Sciences) for reverse transcription with the High-Capacity cDNA Reverse Transcription Kits (ABI Applied Biosystems, USA) according to the manufacturer's instructions. The quantitative real-time reverse transcription-PCR analysis was performed using the Fast SYBR Green Master Mix (ABI Applied Biosystems, USA). Results were determined using respective standard curves calculations. […]

Compound | Incidence rate of dementia (per 1,000-person-year) ([1]; Group 3: TZD + T3 vs T3 only, matched cohort) | reduction of the risk of getting dementia ([1]; retrospective analysis, 10 years follow-up) [%] | lipid droplet accumulation in adipocytes [2] | body weight and gWAT mass [3] | PPARγ2 level [4] | UCP1 level [4] | protein levels of LXRα, PPARγ, ABCA1 and caveolin-1 ([5]; Western blot) | apoE gene expression ([5]; qRT-PCR)
N[C@@H](Cc1cc(I)c(Oc2ccc(O)c(I)c2)c(I)c1)C(=O)O [T3 only, triiodothyronine] | 10.17 per 1,000-person-year | 21.7 |  |  |  |  |  | 
Aβ40: amyloid β peptide Aβ40, comparison peptide |  |  | not |  |  |  |  | 
Aβ42: amyloid β peptide Aβ42, used as inducer of lipid deposition |  |  | evidently stimulated | rapidly increased | increased | decreased | markedly decreased | markedly upregulated
